Test in all cases: growth of human tumour cells (NCI), 48 h
In assay [1] the test system is BT-549.
For assay [2], the system named is K562.
The test system of assay [3] is Hs-578T.
Assay [4] has as its system NCI-H226.
The subject of assay [5] is PC-3.
The test system of assay [6] is OVCAR-4.
The test system of assay [7] is SNB-75.
In assay [8] the test system is NCI-H23.
Assay [9] concerns MDA-N.
In assay [10] the test system is SF-268.
The subject of assay [11] is COLO 205.
In assay [12] the test system is M14.
In assay [13] the test system is 786-0.
Assay [14] relates to NCI/ADR-RES.
Assay [15] has as its system SK-MEL-28.
The test system of assay [16] is OVCAR-5.
Assay [17] has as its system DU-145.
For assay [18], the system named is SK-OV-3.
The subject of assay [19] is TK-10.

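A five-concentration, 48-hour dose response in 96-well plates underlies each endpoint, interpolated linearly between surrounding concentrations. The concentration for 50% growth inhibition is given as GI50.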 Activity calls are given as the source filed them. No stated cut-off is given here; in the data, active = GI50 up to about 1.1 µM and inactive = higher.

For the compound `NS(=O)(=O)c1ccc(NCc2cnc3ccccc3c2)cc1`, the GI50 in assay [1] was 62.8 µM (inactive); in assay [2], > 100 µM (inactive); in [3], 51.8 µM (inactive); in [4], > 100 µM (inactive); in [5], > 100 µM (inactive); in assay [6], > 100 µM (inactive). The GI50 was > 100 µM (inactive) in assay [7]; 60 µM (inactive) in assay [8]; > 100 µM (inactive) in assay [9]; 39.8 µM (inactive) in assay [10]; > 100 µM (inactive) in assay [11]; > 100 µM (inactive) in assay [12]. Further, the GI50 in assay [13] is 39.4 µM (inactive); in assay [14] it was 83.8 µM (inactive); in [15], > 100 µM (inactive); in [16], > 100 µM (inactive); in assay [17] it was > 100 µM (inactive); in assay [18], > 100 µM (inactive). The GI50 in assay [19] was > 100 µM (inactive).

As for `COc1ccc2c(c1O)[C@@]13CCCC=C1[C@@H](C2)[N+](C)(C)CC3`, the GI50 in assay [1] was 46.7 µM (inactive); in assay [2] it was 57.8 µM (inactive); in assay [3], 77.3 µM (inactive); in [4] it was > 100 µM (inactive); in assay [5], > 100 µM (inactive); in [6], > 100 µM (inactive). Besides, the GI50 in assay [7] is 77.6 µM (inactive); in [8], > 100 µM (inactive); in assay [9] it was > 100 µM (inactive); in [10], > 100 µM (inactive); in [11], 43.6 µM (inactive); in assay [12], > 100 µM (inactive). The GI50 in [13], in [14], in [15], in assay [16], in [17] and in [18] was > 100 µM (inactive) in each case. Further, the GI50 in assay [19] is > 100 µM (inactive).

As for `CC1(c2ccc(Cl)cc2)C=C(c2ccc(Cl)cc2)C(C#N)=C(C(C#N)C#N)N1.CNC` (stereo not given), the GI50 in [1] is 21.2 µM (inactive); in assay [2] it was 19.2 µM (inactive); in assay [3], 9.82 µM (inactive); in assay [4] it was 19.8 µM (inactive); in [5] it was 16.6 µM (inactive); in [6], 15.1 µM (inactive). Also, the GI50 in assay [7] was 18.8 µM (inactive); in assay [8] it was 15.3 µM (inactive); in assay [9], 17.3 µM (inactive); in assay [10] it was 10.7 µM (inactive); in [11] it was 14.5 µM (inactive); in assay [12], 18.6 µM (inactive). For the same compound, the GI50 in assay [13] is 13.8 µM (inactive); in assay [14], 17.9 µM (inactive); in [15], 24.1 µM (inactive); in assay [16], 18.1 µM (inactive); in assay [17], 16.1 µM (inactive); in assay [18] it was 17.1 µM (inactive). In addition, the GI50 in assay [19] was 18.7 µM (inactive).

As to `COc1cc(/C=C2\C(=O)N(c3ccc(Cl)cc3)C(c3ccccc3)S2(=O)=O)cc(OC)c1OC` (stereo not given), the GI50 in assay [1] is 14.3 µM (inactive); in [2] it was 0.726 µM (active); in [3] it was > 100 µM (inactive); in assay [4] it was > 84.1 µM (inactive); in [5] it was 22.8 µM (inactive); in [6], 8.89 µM (inactive). The GI50 in [7] is 53.8 µM (inactive); in assay [8], 6.4 µM (inactive); in [9], 2.04 µM (inactive); in assay [10], 31 µM (inactive); in [11], 1.99 µM (inactive); in assay [12] it was 0.522 µM (active). In addition, the GI50 is 39.4 µM (inactive) in [13]; 12.4 µM (inactive) in [14]; > 54.3 µM (inactive) in assay [15]; 9.04 µM (inactive) in assay [16]; > 100 µM (inactive) in [17]; 14 µM (inactive) in assay [18]. The GI50 in assay [19] was > 63 µM (inactive).

`CCOC(=O)c1oc2cc3c(c4c2c1-c1ccccc1N4C)C=CC(C)(C)O3`: the GI50 in assay [1] was 23.6 µM (inactive); in assay [2], 6.71 µM (inactive); in [3], 19.9 µM (inactive); in [4], 16.8 µM (inactive); in assay [5] it was 12.3 µM (inactive); in [6], 6.58 µM (inactive). Also, the GI50 in [7] is 12.6 µM (inactive); in [8] it was 22.2 µM (inactive); in assay [9], > 79.8 µM (inactive); in assay [10], 13.5 µM (inactive); in [11], > 65.3 µM (inactive); in [12] it was 40.2 µM (inactive). Also, the GI50 in assay [13] is 7.06 µM (inactive); in assay [14], 6.3 µM (inactive); in [15], 23.5 µM (inactive); in [16] it was 29.9 µM (inactive); in [17], 18.7 µM (inactive); in [18], 13.4 µM (inactive). In assay [19], the GI50 is 7.1 µM (inactive).

Regarding `[N-]=[N+]=NC1C(O)C(CO)OC1n1ccc(=O)[nH]c1=O` (stereo not given), the GI50 in assay [1], in [2], in assay [3], in assay [4], in [5] and in [6] was > 875 µM (inactive) in each case. Besides, the GI50 in [7], in [8], in [9], in assay [10], in assay [11] and in [12] was > 875 µM (inactive) throughout. The GI50 in assay [13], in assay [14], in assay [15], in [16], in [17] and in [18] was > 875 µM (inactive) throughout. The GI50 in assay [19] is > 875 µM (inactive).

For `c1cc(-c2ccc(-c3ccc(C4=NC5CCCCC5N4)cc3)o2)ccc1C1=NC2CCCCC2N1` (stereo not given), the GI50 in [1] is 2.11 µM (inactive); in [2], 1.42 µM (inactive); in [3], 1.55 µM (inactive); in [4] it was 1.85 µM (inactive); in [5], 1.46 µM (inactive); in assay [6], 1.56 µM (inactive). The GI50 in [7] was 1.68 µM (inactive); in [8], 1.58 µM (inactive); in assay [9], 1.67 µM (inactive); in assay [10], 1.55 µM (inactive); in assay [11], 1.5 µM (inactive); in assay [12], 1.64 µM (inactive). Moreover, the GI50 in [13] is 1.49 µM (inactive); in assay [14] it was 28.4 µM (inactive); in assay [15], 1.83 µM (inactive); in [16], 2.09 µM (inactive); in [17] it was 1.6 µM (inactive); in assay [18], 1.64 µM (inactive). For the same compound, the GI50 in assay [19] was 5.19 µM (inactive).

With `COc1cc(C2SC(=N)Nc3c2c(C)nn3C(=O)c2ccccc2O)ccc1O` (stereo not given), the GI50 in [1] was > 2.63 µM (inactive); in assay [2], 1.46 µM (inactive); in [3] it was 0.461 µM (active); in [4], > 2.25 µM (inactive); in assay [5] it was > 4.03 µM (inactive); in [6], > 2.1 µM (inactive). Moreover, the GI50 in [7] was 1.04 µM (active); in [8], > 2.3 µM (inactive); in assay [9], 1.75 µM (inactive); in assay [10], > 3.05 µM (inactive); in [11] it was > 5.55 µM (inactive); in assay [12], > 2.85 µM (inactive). The GI50 in assay [13] was > 2.33 µM (inactive); in [14], > 2.38 µM (inactive); in [15], > 10 µM (inactive); in [16], > 5.53 µM (inactive); in [17], 1.69 µM (inactive); in assay [18], > 2.17 µM (inactive). Moreover, the GI50 in assay [19] is > 2.96 µM (inactive).

As for `COc1ccc2nc3cc(Cl)ccc3c(NCCNCCCNC(=O)c3cc(-c4ccccc4)nc4ccccc34)c2c1`, the GI50 in assay [1] is > 100 µM (inactive); in [2] it was 70.8 µM (inactive); in assay [3], > 100 µM (inactive); in [4], > 100 µM (inactive); in [5], 56.6 µM (inactive); in assay [6], > 100 µM (inactive). Moreover, the GI50 in [7] was > 100 µM (inactive); in [8], > 100 µM (inactive); in [9], 28.6 µM (inactive); in assay [10], > 100 µM (inactive); in assay [11], > 100 µM (inactive); in [12], > 100 µM (inactive). For the same compound, the GI50 in [13], in assay [14], in assay [15], in assay [16], in [17] and in assay [18] was > 100 µM (inactive) each time. The GI50 in [19] is > 100 µM (inactive).

In the case of `O=[N+]([O-])c1cccc(/N=N/c2c(O)c(S(=O)(=O)O)cc3cc(S(=O)(=O)O)ccc23)c1`, the GI50 in [1], in [2], in assay [3], in [4], in assay [5] and in assay [6] was > 100 µM (inactive) each time. In addition, the GI50 in [7], in assay [8], in assay [9], in assay [10], in assay [11] and in assay [12] was > 100 µM (inactive) in each case. For the same compound, the GI50 in assay [13], in assay [14], in assay [15], in assay [16], in [17] and in assay [18] was > 100 µM (inactive) in each case. Moreover, the GI50 in assay [19] is > 100 µM (inactive).

The values are drawn from ChEMBL document CHEMBL1201862, “PubChem BioAssay data set” (2004).
